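Five concentrations, 48 hours, 96-well plates. The concentration for 50% growth inhibition is given as GI50.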 Activity calls are given as the source filed them. Cut-off read from the data, not from the text of the source: active = GI50 up to about 1.1 µM and inactive = higher.
Tests used:
Assay in all cases: DTP human tumour cell line panel, 48 h
HOP-18 = test system: HOP-18
KM-20L2 = test system: KM-20L2
DMS-114 = test system: DMS-114
SW-620 = test system: SW-620
XF498 = test system: XF498
NCI-H23 = test system: NCI-H23
NCI-H226 = test system: NCI-H226
SNB-78 = test system: SNB-78
HCT-15 = test system: HCT-15
SK-MEL-2 = test system: SK-MEL-2
A549 = test system: A549
DMS-273 = test system: DMS-273
SF-295 = test system: SF-295
OVCAR-8 = test system: OVCAR-8
DLD-1 = test system: DLD-1
ACHN = test system: ACHN
SR = test system: SR

SMILES	GI50 (HOP-18)	GI50 (KM-20L2)	GI50 (DMS-114)	GI50 (SW-620)	GI50 (XF498)	GI50 (NCI-H23)	GI50 (NCI-H226)	GI50 (SNB-78)	GI50 (HCT-15) [µM]	GI50 (SK-MEL-2)	GI50 (A549)	GI50 (DMS-273)	GI50 (SF-295)	GI50 (OVCAR-8)	GI50 (DLD-1)	GI50 (ACHN)	GI50 (SR)
CN(C)CCOc1cc2c(c3ccccc13)-c1ccccc1C2=O	2.07 µM (inactive)	2.1 µM (inactive)	1.09 µM (active)	1.39 µM (inactive)	1.6 µM (inactive)	2.36 µM (inactive)	1.95 µM (inactive)	6.03 µM (inactive)	1.18	1.95 µM (inactive)	9.62 µM (inactive)	0.531 µM (active)	1.71 µM (inactive)	0.895 µM (active)	1.15 µM (inactive)		
C[n+]1[se]c2ccccc2c1Cl	20.7 µM (inactive)	> 51.1 µM (inactive)	35.3 µM (inactive)	20 µM (inactive)	37.2 µM (inactive)	20.1 µM (inactive)	25.6 µM (inactive)	27.8 µM (inactive)	24.7	11.7 µM (inactive)	32 µM (inactive)	20 µM (inactive)	21.7 µM (inactive)	45 µM (inactive)	25.7 µM (inactive)	> 48.8 µM (inactive)	
COC(=O)C(/C(=N/NC(N)=S)C(=O)Nc1ccccc1[N+](=O)[O-])c1cnc2ccccc2n1 (stereo not drawn)	> 100 µM (inactive)	> 100 µM (inactive)	> 100 µM (inactive)	> 100 µM (inactive)	> 100 µM (inactive)	> 100 µM (inactive)	> 100 µM (inactive)	> 100 µM (inactive)	> 100	> 100 µM (inactive)	> 100 µM (inactive)	> 100 µM (inactive)	> 100 µM (inactive)	> 100 µM (inactive)	> 100 µM (inactive)	> 100 µM (inactive)	> 100 µM (inactive)

Reference: ChEMBL document CHEMBL1201862, “PubChem BioAssay data set” (2004)
